The results in this text go back to paper PMC11458808, “Identification and development of a series of disubstituted piperazines for the treatment of Chagas disease” (European Journal of Medicinal Chemistry, 2022).

Series [1] deals with intracellular T. cruzi X10/7 A1 amastigotes. Put plainly: Intracellular T. cruzi assay. Format: cell-based, Trypanosoma cruzi. Conditions: for EC50: Trypanosoma cruzi, read-out: T. cruzi (pEC50) (converted); for EC50 / T. cruzi (pEC50): potency against intracellular T. cruzi amastigotes, at least three independent replicates, standard deviations ≤0.2; for Activity in the intracellular T. cruzi assay (in words): purified compound. Here is the method: 1.1 Intracellular T. cruzi assay: Potency against intracellular T. cruzi X10/7 A1 amastigotes was determined as described previously with as sole modification that the compound treatment duration was increased from 72h to 96h.

Series [2] in a line: Intrinsic clearance in mouse liver microsomes. The class given is in vitro ADME. As to conditions: for Mouse CLi: mouse liver microsomal intrinsic clearance. Here is the method: 2.2 Intrinsic clearance: This assay was conducted as previously described in [5].
In general terms: Liver microsomes are a subcellular fraction often used to study metabolism.

Series [3] can be described thus: ChromLogD pH7.4 (chromatographic hydrophobicity index). Format: physicochemical. Conditions: pH 7.4, CHIpH7.4 × 0.0857–2; for chromatographic logD: read-out: ChromlogDpH7.4.
Series [4] can be described thus: Aqueous (kinetic) solubility by CAD. The class given is physicochemical. Conditions: kinetic solubility measured by CAD. How it is done:
2.1 Aqueous solubility: This assay was conducted as previously described in [4].

Converted amounts (≈) assume the structure as drawn.

`CS(=O)(=O)Nc1ccc(CN2CCN(C(=O)c3cccc(Cl)c3)CC2)cc1` [Compound 2, N-(4-((4-(3-chlorobenzoyl)piperazin-1-yl)methyl)phenyl)methanesulfonamide]: in series [1], the EC50 is > 50.1 µM and the “Activity in the intracellular T. cruzi assay (in words)” value is “complete loss of potency”. Also, in series [2], the “Mouse CLi” value came out at 2.6 mL/min/g. Also, the chromatographic logD in series [3] worked out at 4. In series [4], the solubility was ≥ 470 µM.
`COc1ccc(S(=O)(=O)Nc2ccc(CCN3CCN(C(=O)c4cccc(Cl)c4)CC3)cc2)cc1` [Compound 40, N-(4-(2-(4-(3-chlorobenzoyl)piperazin-1-yl)ethyl)phenyl)-4-methoxybenzenesulfonamide]: in series [1], the EC50 was 5.01 µM. For the same molecule, in series [2], the “Mouse CLi” value is reported as >50 mL/min/g. Further, the chromatographic logD in series [3] was 5.5. Further, the concentration in solution in series [4] (solubility) was 35 µM (≈ 18 µg/mL).
For the molecule `O=C(c1cccc(Cl)c1)N1CCN(Cc2ccc(NS(=O)(=O)c3ccccc3)cc2)CC1` [Compound 3, N-(4-((4-(3-chlorobenzoyl)piperazin-1-yl)methyl)phenyl)benzenesulfonamide], the EC50 in series [1] is 1.58 µM. In addition, the “Mouse CLi” value in series [2] was >50 mL/min/g. In series [3], the chromatographic logD turned out to be 5.5. In series [4], this molecule had a solubility of 67 µM (≈ 31.5 µg/mL).
As to `COc1ccc(S(=O)(=O)Nc2ccc(Cn3cc4c(n3)CN(C(=O)c3cccc(Cl)c3)C4)cc2)cc1` [Compound 29], the “T. cruzi (pEC50)” value in series [1] is listed as 4.9. Further, in series [2], the “Mouse CLi” value is 12 mL/min/g. The “Clearance (mouse liver microsomal)” value in series [2] (mouse, microsomes) amounted to 12 mL/min/g. Also, the ChromlogDpH7.4 in series [3] came to 5.0. Besides, the solubility in series [4] amounted to 19 µM (≈ 9.94 µg/mL).
For `COc1ccc(S(=O)(=O)Nc2nnc(CN3CCN(C(=O)c4cccc(Cl)c4)CC3)o2)cc1` [Compound 41, N-[5-[[4-(3-chlorobenzoyl)piperazin-1-yl]methyl]-1,3,4-oxadiazol-2-yl]-4-methoxy-benzenesulfonamide], in series [1], the EC50 was > 50.1 µM and the “Activity in the intracellular T. cruzi assay (in words)” value is “inactive”. For the same molecule, the “Mouse CLi” value in series [2] was 0.6 mL/min/g. Moreover, the chromatographic logD in series [3] is 1.9. Besides, the solubility in series [4] is ≥ 404 µM.
`N#Cc1ccc(S(=O)(=O)Nc2ccc(CN3CCN(C(=O)c4cccc(Cl)c4)CC3)cc2)cc1` [Compound 5, N-(4-((4-(3-chlorobenzoyl)piperazin-1-yl)methyl)phenyl)-4-cyanobenzenesulfonamide]: the EC50 in series [1] was 7.94 µM. Further, the “Mouse CLi” value in series [2] is >50 mL/min/g. For the same molecule, the chromatographic logD in series [3] was 5.2. In series [4], this molecule came in with a solubility of 54 µM (≈ 26.7 µg/mL).
For `Cc1ccc(S(=O)(=O)Nc2ccc(CN3CCC(NC(=O)c4cccc(Cl)c4)CC3)cc2)cc1` [Compound 37, 3-chloro-N-(1-(4-((4-methylphenyl)sulfonamido)benzyl)piperidin-4-yl)benzamide], the EC50 in series [1] is 3.16 µM. For the same molecule, in series [2], the “Mouse CLi” value was determined as 37 mL/min/g. Further, in series [3], the chromatographic logD came to 5.3. The solubility in series [4] came out at 42 µM (≈ 20.9 µg/mL).
Consider `COc1ccc(S(=O)(=O)Nc2ccc(CN3CCN(C(=O)c4ccnc(C)n4)CC3)cc2)cc1` [Compound 19, 4-methoxy-N-(4-((4-(2-methylpyrimidine-4-carbonyl)piperazin-1-yl)methyl)phenyl)benzenesulfonamide], for which the EC50 in series [1] is > 50.1 µM. Also, the “Mouse CLi” value in series [2] is reported as 12 mL/min/g. For the same molecule, the chromatographic logD in series [3] was 3.2. Further, the solubility in series [4] worked out at 414 µM (≈ 199 µg/mL).
In the case of `COc1ccc(S(=O)(=O)Nc2ccc(CN3CCN(C(=O)c4cc(Cl)ccc4OC)CC3)cc2)cc1` [Compound 14, N-(4-((4-(5-chloro-2-methoxybenzoyl)piperazin-1-yl)methyl)phenyl)-4-methoxybenzenesulfonamide], the EC50 in series [1] was 2 µM. In series [2], the “Mouse CLi” value was >50 mL/min/g. For the same molecule, the chromatographic logD in series [3] was found to be 5.2. The same molecule had a solubility in series [4] of 27 µM (≈ 14.3 µg/mL).
In the same order, the values of `Cc1ccc(S(=O)(=O)Nc2ccc(CNC3CN(C(=O)c4cccc(Cl)c4)C3)cc2)cc1` [Compound 38, N-(4-(((1-(3-chlorobenzoyl)azetidin-3-yl)amino)methyl)phenyl)-4-methylbenzenesulfonamide] are 12.6 µM, >50 mL/min/g, 4.8 and 70 µM (≈ 32.9 µg/mL).
`CN1CCN(S(=O)(=O)Nc2ccc(CN3CCN(C(=O)c4cccc(Cl)c4)CC3)cc2)CC1` [Compound 9, N-(4-((4-(3-chlorobenzoyl)piperazin-1-yl)methyl)phenyl)-4-methylpiperazine-1-sulfonamide]: in series [1], the EC50 is 15.8 µM. Also, the “Mouse CLi” value in series [2] was found to be 32 mL/min/g. For the same molecule, the chromatographic logD in series [3] was 4.1. In addition, in series [4], the solubility is ≥ 430 µM.
Turning to `Cc1ccc(S(=O)(=O)Nc2ccc(CN[C@@H]3CCN(C(=O)c4cccc(Cl)c4)C3)cc2)cc1` [Compound 32, (R)-N-(4-(((1-(3-chlorobenzoyl)pyrrolidin-3-yl)amino)methyl)phenyl)-4-methylbenzenesulfonamide], the EC50 in series [1] was 15.8 µM. Further, in series [2], the “Mouse CLi” value stood at 48 mL/min/g. For the same molecule, the chromatographic logD in series [3] is 4.9. In addition, the solubility in series [4] came out at 75 µM (≈ 36.3 µg/mL).
As to `O=C(c1cccc(Cl)c1)N1CCN(Cc2ccc(NS(=O)(=O)c3ccc4c(c3)OCO4)cc2)CC1` [Compound 6, N-(4-((4-(3-chlorobenzoyl)piperazin-1-yl)methyl)phenyl)benzo[d][1,3]dioxole-5-sulfonamide], in series [1], the EC50 was 0.158 µM. The “Mouse CLi” value in series [2] is given as >50 mL/min/g. For the same molecule, the chromatographic logD in series [3] turned out to be 5.2. In series [4], this molecule yielded a solubility of 33 µM (≈ 17 µg/mL).
As for `Cc1ccc(S(=O)(=O)Nc2ccc(CN(C)[C@H]3CCN(C(=O)c4cccc(Cl)c4)C3)cc2)cc1` [Compound 33, (S)-N-(4-(((1-(3-chlorobenzoyl)pyrrolidin-3-yl)(methyl)amino)methyl)phenyl)-4-methylbenzenesulfonamide], in series [1], the EC50 was 6.31 µM. Besides, the “Mouse CLi” value in series [2] was >50 mL/min/g. Also, the chromatographic logD in series [3] came to 5.7. In addition, the solubility in series [4] was determined as 27 µM (≈ 13.4 µg/mL).
Consider `COc1ccc(S(=O)(=O)Nc2ccc(CN3CCN(C(=O)c4cncc(Cl)c4)CC3)cc2)cc1` [Compound 16, N-(4-((4-(5-chloronicotinoyl)piperazin-1-yl)methyl)phenyl)-4-methoxybenzenesulfonamide], for which the EC50 in series [1] was 1 µM. Further, the “Mouse CLi” value in series [2] was >50 mL/min/g. The chromatographic logD in series [3] worked out at 4.3. The molecule further had a solubility in series [4] of 171 µM (≈ 85.7 µg/mL).
Take `COc1ccc(S(=O)(=O)Nc2ccc(CN3CCN(C(=O)C4CCCN(C)C4)CC3)cc2)cc1` (centres unmarked) [Compound 20, 4-methoxy-N-(4-((4-(1-methylpiperidine-3-carbonyl)piperazin-1-yl)methyl)phenyl)benzenesulfonamide]: the EC50 in series [1] was > 50.1 µM. Moreover, the “Mouse CLi” value in series [2] is recorded as 1.5 mL/min/g. The chromatographic logD in series [3] was determined as 2.3. The solubility in series [4] is ≥ 526 µM.
Regarding `Cc1ccc(S(=O)(=O)Nc2ccc(CN3CCN(C(=O)Cc4coc5ccccc45)CC3)cc2)cc1` [Compound 25], the “T. cruzi (pEC50)” value in series [1] came out at 5.2. For the same molecule, the “Mouse CLi” value in series [2] is on record as >50 mL/min/g. The molecule further displayed a ChromlogDpH7.4 in series [3] of 5.7. The same molecule registered a solubility in series [4] of 22 µM (≈ 11.1 µg/mL).

By solubility is commonly meant the concentration that dissolves in the medium under given conditions. Higher therefore signals much dissolved substance.
